From US7179823B1, “5-membered n-heterocyclic compounds with hypoglycemic and hypolipidemic activity” (Takeda Pharmaceutical Company Limited, priority 1999, dated 2007)

melting point	SMILES
110 to 111 °C	CN(CCOc1ccc(Cn2cc(CCC(=O)O)c(-c3ccccc3)c2)cc1)c1ccccn1 [Example 49, 3-[1-[4-[2-[N-methyl-N-(2-pyridyl)amino]ethoxy]benzyl]-4-phenyl-3-pyrrolyl]propionic acid]
148 to 149 °C	O=C(O)c1cn(Cc2cccc(Oc3ccccc3)c2)nc1-c1ccccc1 [Example 50, 1-(3-phenoxybenzyl)-3-phenyl-1H-pyrazole-4-carboxylic acid]
119 to 120 °C	CCOC(=O)/C=C/c1cn(Cc2ccc3cc(OCc4ccccc4)ccc3c2)cc1-c1ccccc1 [Example 52, ethyl(E)-3-[1-(6-benzyloxy-2-naphthylmethyl)-4-phenyl-3-pyrrolyl]propenoate]
122 to 123 °C	Cc1oc(-c2ccccc2)nc1COc1ccc2cc(Cn3cc(CCC(=O)O)c(-c4ccccc4)c3)ccc2c1 [Example 54, 3-[1-[6-(5-methyl-2-phenyl-4-oxazolylmethoxy)-2-naphthylmethyl]-4-phenyl-3-pyrrolyl]propionic acid]
143 to 144 °C	O=C(O)CCc1cn(Cc2ccc3cc(OCc4ccccc4F)ccc3c2)cc1-c1ccccc1 [Example 56, 3-[1-[6-(2-fluorobenzyloxy)-2-naphthylmethyl]-4-phenyl-3-pyrrolyl]propionic acid]
158 to 159 °C	O=C(O)CCc1cn(Cc2ccc3cc(OCc4cccnc4)ccc3c2)cc1-c1ccccc1 [Example 58, 3-[4-phenyl-1-[6-(3-pyridylmethoxy)-2-naphthylmethyl]-3-pyrrolyl]propionic acid]
163 to 164 °C	Cc1ncccc1COc1ccc2cc(Cn3cc(CCC(=O)O)c(-c4ccccc4)c3)ccc2c1 [Example 60, 3-[1-[6-(2-methyl-3-pyridylmethoxy)-2-naphthylmethyl]-4-phenyl-3-pyrrolyl]propionic acid]
155 to 156 °C	Cc1oc(-c2ccccc2)nc1COc1ccc(Cn2cc(CCC(=O)O)c(-c3ccccn3)c2)cc1 [Example 64, 3-[1-[4-(5-methyl-2-phenyl-4-oxazolylmethoxy)benzyl]-4-(2-pyridyl)-3-pyrrolyl]propionic acid]
111 to 112 °C	COc1cc(Cn2cc(CCC(=O)O)c(-c3ccccc3)c2)cc(OCc2csc(-c3cnccn3)n2)c1 [Example 71, 3-[1-[3-methoxy-5-[2-(2-pyrazinyl)-4-thiazolylmethoxy]benzyl]-4-phenyl-3-pyrrolyl]propionic acid]
97 to 98 °C	CCOc1cc(Cn2cc(CCC(=O)O)c(-c3ccccc3)c2)cc(OCc2csc(-c3cnccn3)n2)c1 [Example 73, 3-[1-[3-ethoxy-5-[2-(2-pyrazinyl)-4-thiazolylmethoxy]benzyl]-4-phenyl-3-pyrrolyl]propionic acid]
109 to 110 °C	O=C(O)CCc1cn(Cc2cc(OCc3ccccc3)cc(OCc3csc(-c4cnccn4)n3)c2)cc1-c1ccccc1 [Example 75, 3-[1-[3-benzyloxy-5-[2-(2-pyrazinyl)-4-thiazolylmethoxy]benzyl]-4-phenyl-3-pyrrolyl]propionic acid]
102 to 103 °C	CCOC(=O)c1cn(Cc2ccc(OCc3ccccc3)cc2)nc1-c1ccccc1 [Example 76, ethyl 1-(4-benzyloxybenzyl)-3-phenyl-1H-pyrazole-4-carboxylate]
147 to 148 °C	O=C(O)CCc1cn(Cc2ccc(OCc3ccccc3)cc2)nc1-c1ccccc1 [Example 77, 3-[1-(4-benzyloxybenzyl)-3-phenyl-1H-pyrazol-4-yl]propionic acid]
154 to 155 °C	Cc1oc(-c2ccncc2)nc1COc1ccc(Cn2cc(CCC(=O)O)c(-c3ccccc3)n2)cc1 [Example 83, 3-[1-[4-[5-methyl-2-(4-pyridyl)-4-oxazolylmethoxy]benzyl]-3-phenyl-1H-pyrazol-4-yl]propionic acid]
166 to 167 °C	O=C(O)CCc1cn(Cc2ccc(OCc3noc(-c4ccccc4)n3)cc2)nc1-c1ccccc1 [Example 85, 3-[3-phenyl-1-[4-(5-phenyl-1,2,4-oxadiazole-3-ylmethoxy)benzyl]-1H-pyrazol-4-yl]propionic acid]
112 to 113 °C	O=C(O)CCc1cn(Cc2ccc(OCc3cccnc3)cc2)nc1-c1ccccc1 [Example 91, 3-[3-phenyl-1-[4-(3-pyridylmethoxy)benzyl]-1H-pyrazol-4-yl]propionic acid]
152 to 153 °C	O=C(O)c1cn(Cc2ccc(OCc3ccccc3)cc2)nc1-c1ccccc1 [Example 92, 1-(4-benzyloxybenzyl)-3-phenyl-1H-pyrazol-4-carboxylic acid]
165 to 166 °C	Cc1oc(-c2ccccc2)nc1COc1ccc(Cn2cc(C(=O)O)c(-c3ccccc3)n2)cc1 [Example 93, 1-[4-(5-methyl-2 phenyl-4-oxazolylmethoxy)benzyl]-3-phenyl-1H-pyrazol-4-carboxylic acid]
119 to 120 °C	O=C(O)c1cn(Cc2ccc(OCc3csc(-c4ccccc4)n3)cc2)nc1-c1ccccc1 [Example 94, 3-phenyl-1-[4-(2-phenyl-4-thiazolylmethoxy)benzyl]-1H-pyrazol-4-carboxylic acid]
118 to 119 °C	Cc1oc(-c2ccccc2)nc1COc1ccc(Cn2cc(CCCC(=O)O)c(-c3ccccc3)n2)cc1 [Example 96, 4-[1-[4-(5-methyl-2-phenyl-4-oxazolylmethoxy)benzyl]-3-phenyl-1H-pyrazole-4-yl]butanoic acid]
109 to 110 °C	Cc1oc(-c2ccccc2)nc1COc1ccc(Cn2cc(CCCCC(=O)O)c(-c3ccccc3)n2)cc1 [Example 97, 5-[1-[4-(5-methyl-2-phenyl-4-oxazolylmethoxy)benzyl]-3-phenyl-1H-pyrazol-4-yl]pentanoic acid]
149 to 150 °C	Cc1oc(-c2ccccc2)nc1COc1ccc(Cn2cc(CCC(=O)O)c(-c3ccc(C(F)(F)F)cc3)n2)cc1 [Example 98, 3-[1-[4-(5-methyl-2-phenyl-4-oxazolylmethoxy)benzyl]-3-(4-trifluoromethylphenyl)-1H-pyrazol-4-yl]propionic acid]

Continued, molecule first:

SMILES	melting point
Cc1oc(-c2ccccc2)nc1COc1ccc(Cn2cc(/C=C/C(=O)O)c(-c3ccccc3)c2)cc1 [Example 5, (E)-3-[1-[4-(5-methyl-2-phenyl-4-oxazolylmethoxy)benzyl]-4-phenyl-3-pyrrolyl]propenoic acid]	154 to 155 °C
O=C(O)CCc1cn(Cc2ccc(OCc3ccccc3)cc2)cc1-c1ccccc1 [Example 10, 3-[1-(4-benzyloxybenzyl)-4-phenyl-3-pyrrolyl]propionic acid]	130 to 131 °C
O=C(O)CCc1cn(Cc2ccc(OCc3ccccn3)cc2)cc1-c1ccccc1 [Example 11, 3-[4-phenyl-1-[4-(2-pyridylmethoxy)benzyl]-3-pyrrolyl]propionic acid]	109 to 110 °C
O=C(O)CCc1cn(Cc2ccc(OCc3ccncc3)cc2)cc1-c1ccccc1 [Example 13, 3-[4-phenyl-1-[4-(4-pyridylmethoxy)benzyl]-3-pyrrolyl]propionic acid]	124 to 125 °C
Cc1oc(-c2ccccc2)nc1CCOc1ccc(Cn2cc(CCC(=O)O)c(-c3ccccc3)c2)cc1 [Example 14, 3-[1-[4-[2-(5-methyl-2-phenyl-4-oxazolyl)ethoxy]benzyl]-4-phenyl-3-pyrrolyl]propionic acid]	147 to 148 °C
O=C(O)CCc1cn(Cc2ccc(OCc3csc(-c4cnccn4)n3)cc2)cc1-c1ccccc1 [Example 16, 3-[4-phenyl-1-[4-[2-(2-pyrazinyl)-4-thiazolylmethoxy]benzyl]-3-pyrrolyl]propionic acid]	137 to 138 °C
O=C(O)CCc1cn(Cc2ccc(OCc3ccoc3)cc2)cc1-c1ccccc1 [Example 18, 3-[1-[4-(3-furylmethoxy)benzyl]-4-phenyl-3-pyrrolyl]propionic acid]	110 to 111 °C
O=C(O)CCc1cn(Cc2ccc(OCc3cccs3)cc2)cc1-c1ccccc1 [Example 20, 3-[4-phenyl-1-[4-(2-thienylmethoxy)benzyl]-3-pyrrolyl]propionic acid]	127 to 128 °C
O=C(O)CCc1cn(Cc2ccc(OCc3ccsc3)cc2)cc1-c1ccccc1 [Example 22, 3-[4-phenyl-1-[4-(3-thienylmethoxy)benzyl]-3-pyrrolyl]propionic acid]	118 to 119 °C
Cc1ncccc1COc1ccc(Cn2cc(CCC(=O)O)c(-c3ccccc3)c2)cc1 [Example 26, 3-[1-[4-(2-methyl-3-pyridylmethoxy)benzyl]-4-phenyl-3-pyrrolyl]propionic acid]	158 to 159 °C
Cc1sc(-c2ccccc2)nc1COc1ccc(Cn2cc(CCC(=O)O)c(-c3ccccc3)c2)cc1 [Example 28, 3-[1-[4-(5-methyl-2-phenyl-4-thiazolylmethoxy)benzyl]-4-phenyl-3-pyrrolyl]propionic acid]	157 to 158 °C
O=C(O)CCc1cn(Cc2ccc(OCc3csc(-c4ccccn4)n3)cc2)cc1-c1ccccc1 [Example 32, 3-[4-phenyl-1-[4-[2-(2-pyridyl)-4-thiazolylmethoxy)benzyl]-3-pyrrolyl]propionic acid]	117 to 118 °C
O=C(O)CCc1cn(Cc2ccc(OCc3csc(-c4ccncc4)n3)cc2)cc1-c1ccccc1 [Example 34, 3-[4-phenyl-1-[4-[2-(4-pyridyl)-4-thiazolylmethoxy)benzyl]-3-pyrrolyl]propionic acid]	149 to 150 °C
O=C(O)CCc1cn(Cc2ccc(OCc3cccc(-c4cnccn4)c3)cc2)cc1-c1ccccc1 [Example 36, 3-[4-phenyl-1-[4-[3-(2-pyrazinyl)benzyloxy]benzyl]-3-pyrrolyl]propionic acid]	91 to 92 °C
Cc1nc(COc2ccc(Cn3cc(CCC(=O)O)c(-c4ccccc4)c3)cc2)cs1 [Example 42, 3-[1-[4-(2-methyl-4-thiazolylmethoxy]benzyl]-4-phenyl-3-pyrrolyl]propionic acid]	113 to 114 °C
O=C(O)CCc1cn(Cc2ccc(OCc3csc(-c4cccnc4)n3)cc2)cc1-c1ccccc1 [Example 46, 3-[4-phenyl-1-[4-[2-(3-pyridyl)-4-thiazolylmethoxy]benzyl]-3-pyrrolyl]propionic acid]	118 to 119 °C
